Results from patent US20220233512A1, “INHIBITING AN IMMUNE RESPONSE MEDIATED BY ONE OR MORE OF TLR2, RAGE, CCR5, CXCR4 AND CD4” (priority 2020, published 2022).

Target: T1, mu opiate receptor (MOR) (Rattus norvegicus, UniProt P33535)
T1 construct: from tissue; host or cells: striatum (membrane preparation)
Assay: MOR agonist activity using [35S]GTPgS binding assay in striatal membranes
Assay type: biochemical
Design: MOR agonist activity (preliminary study): unit of the concentration uncertain
Conditions: for MOR agonist activity (preliminary study): average of two runs
Procedure, shortened: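 Rat striatal membranes incubated 5 min at 30 °C in pH 7.5 HEPES buffer with 100 mM NaCl, 1 mM MgCl2 and 0.5 nM [35S]GTPgS, then 5 min with compound. Gαo-bound [35S]GTPgS isolated by immunoprecipitation and counted by liquid scintillation.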

[1] = 0.1 μM compound as agonist, Series C-2 table
[2] = 1 μM compound as agonist, Series C-2 table
[3] = 0.1 μM compound as agonist, Series C-1 table
[4] = 1 μM compound as agonist, Series C-1 table

T1 sequence (P33535 whole entry): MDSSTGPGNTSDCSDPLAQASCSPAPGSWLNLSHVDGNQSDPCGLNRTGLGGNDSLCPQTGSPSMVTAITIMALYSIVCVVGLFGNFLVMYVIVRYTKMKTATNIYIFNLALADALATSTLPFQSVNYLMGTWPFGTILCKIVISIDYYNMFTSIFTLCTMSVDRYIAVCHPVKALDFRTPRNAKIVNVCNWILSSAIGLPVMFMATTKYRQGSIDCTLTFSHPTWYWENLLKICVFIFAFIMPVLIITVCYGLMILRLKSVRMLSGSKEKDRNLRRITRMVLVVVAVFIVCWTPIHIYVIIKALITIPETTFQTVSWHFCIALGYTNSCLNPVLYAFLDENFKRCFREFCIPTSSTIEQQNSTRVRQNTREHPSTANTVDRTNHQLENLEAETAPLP

Row | Compound | MOR agonist activity ([35S]GTPgS binding to Gao) [1] [%] | MOR agonist activity ([35S]GTPgS binding to Gao) (1 μM + BFNA, Series C-2 table) [%] | MOR agonist activity ([35S]GTPgS binding to Gao) [2] [%] | MOR agonist activity ([35S]GTPgS binding to Gao) [3] [%] | MOR agonist activity ([35S]GTPgS binding to Gao) (1 μM + BFNA, Series C-1 table) [%] | MOR agonist activity ([35S]GTPgS binding to Gao) [4] [%] | other results
1 | Cc1ccc(S(=O)(=O)N2CCOC23CCN(CC2CC2)CC3)cc1 [Compound C0134M] | 158.5 | 46.6 | 207.3 | – | – | – | MOR agonist activity (preliminary study) (1 mM + bNFA): 53.2%; MOR agonist activity (preliminary study) (0.1 (unit uncertain) compound as agonist): 150.7%; MOR agonist activity (preliminary study) (1 (unit uncertain) compound as agonist): 224.0%
2 | CCc1ccc(S(=O)(=O)N2CCOC23CCN(CC2CC2)CC3)cc1 [Compound C0135M] | 161.3 | 113.3 | 310.1 | – | – | – | –
3 | O=C1CN(Cc2ccccc2)C2(CCN(S(=O)(=O)c3cc(Cl)cc(Cl)c3O)CC2)N1 [Compound C0138M] | – | – | – | 126.9 | 51.5 | 183.9 | –
4 | O=C1CN(Cc2ccccc2)C2(CCN(S(=O)(=O)c3cc(Cl)c(O)c(Cl)c3)CC2)N1 [Compound C0139M] | – | – | – | 156.1 | 51.0 | 206.6 | –
5 | O=S(=O)(c1ccc2ccccc2c1)N1CCC2(CC1)OCCN2S(=O)(=O)c1ccc2ccccc2c1 [Compound C0140M] | – | – | – | 126.1 | 83.0 | 215.4 | –
6 | O=S(=O)(c1cccs1)N1CCC2(CC1)OCCN2S(=O)(=O)c1cccs1 [Compound C0141M] | – | – | – | 161.5 | 47.9 | 213.9 | –
7 | COc1ccc(S(=O)(=O)N2CCC3(CC2)NCCC(=O)N3)cc1 [Compound C0142M] | 143.7 | 98.7 | 192.5 | – | – | – | –
8 | O=S(=O)(c1cccc2cccnc12)N1CCC2(CC1)OCCN2S(=O)(=O)c1cccc2cccnc12 [Compound C0143M] | 81.0 | 86.5 | 193.3 | 81.0 | 86.5 | 193.3 | –
9 | COc1ccc(S(=O)(=O)N2CCC3(NCCO3)C3CCCCC32)cc1 (stereo not drawn) [Compound C0144M-2] | 186.3 | 125.9 | 295.9 | – | – | – | –
10 | COc1ccc(S(=O)(=O)N2CCC3(OCCN3S(=O)(=O)c3ccc(OC)cc3)C3CCCCC32)cc1 (stereo not drawn) [Compound C0144M] | – | – | – | 186.3 | 125.9 | 295.9 | –
11 | COc1ccc(S(=O)(=O)N2CCOC23CCCNC3)cc1 (stereo not drawn) [Compound C0145M-3] | 193.0 | 87.0 | 289.2 | – | – | – | –
12 | COc1ccc(S(=O)(=O)N2CCCC3(C2)OCCN3S(=O)(=O)c2ccc(OC)cc2)cc1 (stereo not drawn) [Compound C0145M] | – | – | – | 193.0 | 87.0 | 289.2 | –
13 | O=C1CNC2(CCN(S(=O)(=O)c3ccc(O)cc3)CC2)N1Cc1ccccc1 [Compound C0148M] | – | – | – | 181.3 | 87.6 | 360.6 | % DAMGO + BFNA (relative to DAMGO + BFNA, Series C-1 table): 95.9%; % DAMGO (0.1 μM) (relative to DAMGO at 0.1 μM, Series C-1 table): 105.4%; % DAMGO (1 μM) (relative to DAMGO at 1 μM, Series C-1 table): 110.6%
14 | O=S(=O)(c1ccccc1Oc1ccccc1)N1CCC2(CC1)NCCO2 [Compound C0149M-2] | 209.8 | 93.4 | 406.7 | – | – | – | –
15 | O=S(=O)(c1ccc(Oc2ccccc2)cc1)N1CCC2(CC1)OCCN2S(=O)(=O)c1ccc(Oc2ccccc2)cc1 [Compound C0149M] | – | – | – | 209.8 | 93.4 | 406.7 | –
